Test results reported in patent US9902725B2, “Heterocyclic derivatives as RORgamma modulators” (GENFIT, priority 2014, dated 2018).

Columns and labels:
[1] = Microsomal stability, human microsomes (CEREP); type: in vitro ADME; details: 0.1 μM, 0.1 mg/mL microsomal protein
Procedure: (§1) All the assays were conducted at CEREP (CEREP, France and USA). Metabolic compound stability was tested in human (CEREP, Ref 607) and mouse (CEREP, Ref: 806) microsomes. Inhibition of human drug-metabolizing cytochromes P450 was tested on the five most commonly responsible enzymes of metabolism of xenobiotics, CYP1A2 (CEREP, Ref 389), CYP2C9 (CEREP, Ref 412), CYP2C19 (CEREP, Ref 390), CYP2D6 (CEREP, Ref 1338) and CYP3A4 (CEREP, Ref 391).
Briefly, the standard conditions for CEREP's stability assays include incubation of test compound at 0.1 μM with human or mouse microsomes for 60 minutes in duplicate. The protein concentration of microsomes is 0.1 mg/mL. The parent compound is detected by HPLC-MS/MS analysis. The quantity of the parent compound that remains intact upon 60 minutes of microsome exposure (% remaining) is calculated by comparing the peak area of the parent compound at 60 minutes of exposure to the time zero.

CYP2C9 = CYP2C9 (Homo sapiens, UniProt P11712); test: CYP inhibition CYP2C9 (CEREP); type: in vitro ADME; details: human, recombinant CYP2C9, human recombinant CYP, single concentration (typically 10 μM); read-out: CYP 2C9 (% inhibition of Control)
Procedure: as §1
(§2) Briefly, CEREP's CYP inhibition assay uses traditional probe substrates, which are specific to individual CYP isoforms. 3-cyano-7-ethoxycoumarin is mainly catalyzed by CYP1A2 and CYP2C19, 3-[2-(N,N-diethyl-N-methylammonium)ethyl]-7-methoxy-4-methylcoumarin for CYP2C9 and CYP2D6 and finally, 7-benzyloxy-4-trifluoromethylcoumarin is pathway catalyzed predominantly by CYP3A4. The inhibition assays were performed with human recombinant CYP isoforms preparations. HPLC MS/MS methods are used to detect metabolites in these assays. Compounds were tested at single concentrations (typically 10 μM) and data were expressed as percent of control inhibition.

CYP2C19 = CYP2C19 (Homo sapiens, UniProt P33261); test: CYP inhibition CYP2C19 (CEREP); type: in vitro ADME; details: human, recombinant CYP2C19, probe 3-cyano-7-ethoxycoumarin, single concentration (typically 10 μM), read-out: CYP 2C19 (% inhibition of Control)
Procedure: as §1, §2

CYP2D6 = CYP2D6 (Homo sapiens, UniProt P10635); test: CYP inhibition CYP2D6 (CEREP); type: in vitro ADME; details: human, recombinant CYP2D6, human recombinant CYP, single concentration (typically 10 μM); read-out: CYP 2D6 (% inhibition of Control)
Procedure: as §1, §2

CYP3A4 = CYP3A4 (Homo sapiens, UniProt P08684); test: CYP inhibition CYP3A4 (CEREP); type: in vitro ADME; details: human, recombinant CYP3A4, probe 7-benzyloxy-4-trifluoromethylcoumarin, single concentration (typically 10 μM), read-out: CYP 3A4 (% inhibition of Control)
Procedure: as §1, §2

human RORγt = target: T1, human RORγt (Homo sapiens, UniProt P51449); test: IL-17 secretion from EL4 murine lymphoma overexpressing human RORγt; type: cell-based; set-up: expressed in transfected cells; host or cells: EL-4 murine lymphoma; details: IL-17 secretion inhibition, PMA and ionomycin stimulation, 24 h
T1 sequence (P51449 1-497 isoform P51449-2): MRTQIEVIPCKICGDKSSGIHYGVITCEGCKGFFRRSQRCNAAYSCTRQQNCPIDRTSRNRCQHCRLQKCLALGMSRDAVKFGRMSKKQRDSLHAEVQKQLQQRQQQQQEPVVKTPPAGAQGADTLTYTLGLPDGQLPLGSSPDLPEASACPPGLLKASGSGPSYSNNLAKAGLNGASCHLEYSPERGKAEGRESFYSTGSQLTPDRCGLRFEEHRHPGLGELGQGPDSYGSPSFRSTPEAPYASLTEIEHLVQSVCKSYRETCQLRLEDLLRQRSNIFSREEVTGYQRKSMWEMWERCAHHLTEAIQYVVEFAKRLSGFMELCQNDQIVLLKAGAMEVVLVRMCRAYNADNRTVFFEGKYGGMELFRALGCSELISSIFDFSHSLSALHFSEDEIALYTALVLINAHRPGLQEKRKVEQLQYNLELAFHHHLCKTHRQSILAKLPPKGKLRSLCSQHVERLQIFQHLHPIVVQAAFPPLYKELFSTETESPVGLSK
In short: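 EL4 murine lymphoma cells electroporated with hRORγt plasmid, seeded 150000 cells/well, pretreated with compound, then stimulated with PMA (10 ng/mL) and ionomycin (1 μM final) with compound for a further 24 h at 37° C. IL-17 in supernatant measured by HTRF or ELISA.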

Chain of CYP2C9 (P11712 whole entry): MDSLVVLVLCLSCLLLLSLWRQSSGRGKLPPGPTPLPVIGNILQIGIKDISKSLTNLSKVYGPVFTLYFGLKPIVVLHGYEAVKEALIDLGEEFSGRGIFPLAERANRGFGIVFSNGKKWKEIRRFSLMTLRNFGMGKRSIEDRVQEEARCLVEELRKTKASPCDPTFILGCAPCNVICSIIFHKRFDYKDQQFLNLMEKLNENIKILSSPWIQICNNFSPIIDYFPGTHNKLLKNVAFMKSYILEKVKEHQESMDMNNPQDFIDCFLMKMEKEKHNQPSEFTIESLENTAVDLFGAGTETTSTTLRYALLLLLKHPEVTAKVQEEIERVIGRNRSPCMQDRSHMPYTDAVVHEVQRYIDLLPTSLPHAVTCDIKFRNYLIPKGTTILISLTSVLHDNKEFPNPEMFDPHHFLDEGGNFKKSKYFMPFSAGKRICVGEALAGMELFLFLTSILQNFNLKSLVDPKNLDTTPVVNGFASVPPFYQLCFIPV
Chain of CYP2C19 (P33261 whole entry): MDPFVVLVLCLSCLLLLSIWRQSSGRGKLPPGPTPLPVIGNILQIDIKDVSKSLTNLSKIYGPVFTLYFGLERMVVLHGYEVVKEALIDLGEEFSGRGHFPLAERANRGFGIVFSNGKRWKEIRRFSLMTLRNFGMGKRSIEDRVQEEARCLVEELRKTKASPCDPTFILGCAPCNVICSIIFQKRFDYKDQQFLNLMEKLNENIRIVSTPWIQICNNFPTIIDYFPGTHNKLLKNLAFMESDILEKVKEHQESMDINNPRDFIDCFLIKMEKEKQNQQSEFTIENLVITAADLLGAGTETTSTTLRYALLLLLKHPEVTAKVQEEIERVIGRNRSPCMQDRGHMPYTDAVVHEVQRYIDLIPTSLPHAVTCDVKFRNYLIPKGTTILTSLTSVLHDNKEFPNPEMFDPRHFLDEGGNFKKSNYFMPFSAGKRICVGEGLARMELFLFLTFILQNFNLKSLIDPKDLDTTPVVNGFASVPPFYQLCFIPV
Chain of CYP3A4 (P08684 whole entry): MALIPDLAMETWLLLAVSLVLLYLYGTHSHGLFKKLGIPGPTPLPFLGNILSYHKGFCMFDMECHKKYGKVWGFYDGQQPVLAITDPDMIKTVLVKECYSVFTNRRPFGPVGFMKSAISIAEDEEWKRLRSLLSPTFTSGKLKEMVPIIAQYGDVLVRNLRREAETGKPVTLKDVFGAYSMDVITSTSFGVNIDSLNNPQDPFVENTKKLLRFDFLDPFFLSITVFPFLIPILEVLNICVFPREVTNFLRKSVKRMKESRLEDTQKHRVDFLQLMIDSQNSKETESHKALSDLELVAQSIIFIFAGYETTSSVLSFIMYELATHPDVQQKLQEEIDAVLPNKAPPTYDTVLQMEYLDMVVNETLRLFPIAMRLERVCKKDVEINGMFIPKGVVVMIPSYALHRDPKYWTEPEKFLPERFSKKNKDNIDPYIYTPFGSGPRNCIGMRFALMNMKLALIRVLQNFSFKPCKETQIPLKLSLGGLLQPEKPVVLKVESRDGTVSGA
Chain of CYP2D6 (P10635 whole entry): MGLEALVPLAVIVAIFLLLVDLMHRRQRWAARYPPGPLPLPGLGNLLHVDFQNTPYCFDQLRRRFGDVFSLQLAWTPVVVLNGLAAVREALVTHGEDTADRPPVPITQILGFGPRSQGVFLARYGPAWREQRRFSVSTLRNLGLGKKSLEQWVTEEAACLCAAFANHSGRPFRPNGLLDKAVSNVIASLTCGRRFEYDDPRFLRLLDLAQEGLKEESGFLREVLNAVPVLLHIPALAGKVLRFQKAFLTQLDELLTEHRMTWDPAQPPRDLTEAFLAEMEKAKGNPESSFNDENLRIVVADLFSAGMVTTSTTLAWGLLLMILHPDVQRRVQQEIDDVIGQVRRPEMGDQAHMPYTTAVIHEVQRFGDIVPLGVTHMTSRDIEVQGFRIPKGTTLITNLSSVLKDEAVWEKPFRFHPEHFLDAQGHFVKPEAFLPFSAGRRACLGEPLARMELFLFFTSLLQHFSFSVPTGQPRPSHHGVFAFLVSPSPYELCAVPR

Compound	Human microsomes (% Cpd. remaining at 60 min) [1]	inhibition at 10 µM (CYP2C9)	inhibition at 10 µM (CYP2C19)	inhibition at 10 µM (CYP2D6)	inhibition at 10 µM (CYP3A4)	IC50 (human RORγt)
Cc1ccc(C(NC(=O)Cc2ccc3[nH]cc(CCC(=O)O)c3c2)c2ccccc2)c(N2CCCC2)c1 (stereo not drawn) [Cpd. 5, 3-{5-[({[4-methyl-2-(pyrrolidin-1-yl)phenyl](phenyl)methyl}carbamoyl)methyl]-1H-indol-3-yl}propanoic acid]	89%	35.9%	25%	13.5%	25.8%	< 1000 nM
CC(C)CC(NC(=O)Cc1ccc2[nH]cc(CCC(=O)O)c2c1)c1ccccc1N1CCCCC1 (stereo not drawn) [Cpd. 29, 3-{5-[({3-methyl-1-[2-(piperidin-1-yl)phenyl]butyl}carbamoyl)methyl]-1H-indol-3-yl}propanoic acid]	23%	14.9%	14.1%	18.2%	47.2%	1000 to 10000 nM
O=C(O)CCc1c[nH]c2ccc(CC(=O)NC(c3ccccc3)c3ccc(C(F)(F)F)cc3N3CCCC3)cc12 (stereo not drawn) [Cpd. 48, 3-{5-[({phenyl[2-(pyrrolidin-1-yl)-4-(trifluoromethyl)phenyl]methyl}carbamoyl)methyl]-1H-indol-3-yl}propanoic acid]	83%	24.6%	35%	78.9%	33.7%	1000 to 10000 nM
O=C(O)CCc1c[nH]c2ccc(CC(=O)NC(c3ccccc3)c3ccc(Br)cc3N3CCCC3)cc12 (stereo not drawn) [Cpd. 50, 3-{5-[({[4-bromo-2-(pyrrolidin-1-yl)phenyl](phenyl)methyl}carbamoyl)methyl]-1H-indol-3-yl}propanoic acid]	92%	15.8%	32.3%	26.5%	36.8%	< 1000 nM
Cc1ccc(C(NC(=O)Cc2ccc3[nH]cc(CCC(=O)O)c3c2)c2ccccc2)c(N(C)C)c1 (stereo not drawn) [Cpd. 192, 3-{5-[({[2-(dimethylamino)-4-methylphenyl](phenyl)methyl}carbamoyl)methyl]-1H-indol-3-yl}propanoic acid]	79%	28.6%	31.2%	4.3%	30.9%	< 1000 nM

The remaining lines, values ahead:

Human microsomes (% Cpd. remaining at 60 min) [1]	inhibition at 10 µM (CYP2C9)	inhibition at 10 µM (CYP2C19)	inhibition at 10 µM (CYP2D6)	inhibition at 10 µM (CYP3A4)	IC50 (human RORγt)	Compound
54%	12%	13%	49%	19%	1000 to 10000 nM	O=C(O)CCc1c[nH]c2ccc(CC(=O)NC(c3ccccc3)c3ccccc3N3CCCCC3)cc12 (stereo not drawn) [Cpd. 1, 3-{5-[({phenyl[2-(piperidin-1-yl)phenyl]methyl}carbamoyl)methyl]-1H-indol-3-yl}propanoic acid]
36%	52.7%	58.8%	-2%	60.9%	1000 to 10000 nM	O=C(O)CCc1c[nH]c2ccc(CC(=O)NC(c3cccc(F)c3)c3ccccc3N3CCCCC3)cc12 (stereo not drawn) [Cpd. 3, 3-[5-({[(3-fluorophenyl)[2-(piperidin-1-yl)phenyl]methyl]carbamoyl}methyl)-1H-indol-3-yl]propanoic acid]
88%	23.2%	28.1%	6.2%	31.3%	< 1000 nM	Cc1ccc(C(NC(=O)Cc2ccc3[nH]cc(CCC(=O)O)c3c2)c2ccccc2)c(N2CCCCC2)c1 (stereo not drawn) [Cpd. 77, 3-{5-[({[4-methyl-2-(piperidin-1-yl)phenyl](phenyl)methyl}carbamoyl)methyl]-1H-indol-3-yl}propanoic acid]
88%	28.2%	29.4%	7.5%	40.1%	1000 to 10000 nM	COc1ccc(C(NC(=O)Cc2ccc3[nH]cc(CCC(=O)O)c3c2)c2ccccc2)c(N2CCCCC2)c1 (stereo not drawn) [Cpd. 111, 3-{5-[({[4-methoxy-2-(piperidin-1-yl)phenyl](phenyl)methyl}carbamoyl)methyl]-1H-indol-3-yl}propanoic acid]
26%	29.5%	32.2%	-6.3%	31%	1000 to 10000 nM	O=C(O)CCCc1c[nH]c2ccc(CC(=O)NC(c3ccccc3)c3ccccc3N3CCCCC3)cc12 (stereo not drawn) [Cpd. 212, 4-{5-[({phenyl[2-(piperidin-1-yl)phenyl]methyl}carbamoyl)methyl]-1H-indol-3-yl}butanoic acid]
